According to US20090264471A1, “Compounds, Compositions and Methods Comprising Triazole Derivatives” (Institute for OneWorld Health, priority 2008, published 2009):

Biological target: T1, CFTR (Homo sapiens, UniProt P13569)
T1 construct: results in the phosphorylation and opening of CFTR anion channels; host or cells: Human colonic T84 cells
Test: T84 assay (FLIPR membrane potential dye, forskolin/IBMX-stimulated CFTR channel activity)
Format: cell-based
Settings: human colonic T84 cells, average of at least 2 runs unless annotated n = 1
Procedure: (§1) For example, Human colonic T84 cells can be acquired from the European Collection of Cell Cultures (ECACC) and grown in standard culture conditions as described by the supplier. On the day before assay 25,000 T84 cells per well are plated into standard black walled, clear bottom 384-well assay plates in standard growth medium consisting of DMEM:F12 with 10% FBS and incubated overnight. On the day of the assay the plates are washed using a standard assay buffer (HBSS with 10 mM Hepes) and incubated for 15 minutes in serum free cell culture medium before the addition of a commercially available membrane potential sensitive fluorescent dye (FLIPR Red membrane potential dye, Molecular Devices Corporation). T84 cells are incubated with the FLIPR Red membrane potential dye for 45 minutes in the presence and absence of test compound before being transferred to a commercially available fluorescence imaging plate reader (FLIPR384, Molecular Devices Corporation). Fluorescence levels are monitored continuously every second for 150 seconds; after an initial 10 second baseline, CFTR channel activity is stimulated through the addition of 10 μM forskolin in the presence of 100 μM of the phosphodiesterase inhibitor iso-butyl-methylxanthine (IBMX). Addition of the forskolin leads to the activation of intracellular adenylyl cylase 1, elevating cAMP levels and results in the phosphorylation and opening of CFTR anion channels. CFTR channel opening causes chloride ion efflux and subsequent depolarization of the cells, which is measured by an increase in fluorescence. CFTR inihibitor compounds prevent cell depolarization and the associated increase in fluorescence.
as §1, with “Human colonic” for “For example, Human colonic”, “T84 cells are acquired from” for “T84 cells can be acquired from”, “(ECACC) and are grown in” for “(ECACC) and grown in”, “fluorescence. CFTR inhibitor compounds prevent” for “fluorescence. CFTR inihibitor compounds prevent”

T1 sequence (P13569 whole entry): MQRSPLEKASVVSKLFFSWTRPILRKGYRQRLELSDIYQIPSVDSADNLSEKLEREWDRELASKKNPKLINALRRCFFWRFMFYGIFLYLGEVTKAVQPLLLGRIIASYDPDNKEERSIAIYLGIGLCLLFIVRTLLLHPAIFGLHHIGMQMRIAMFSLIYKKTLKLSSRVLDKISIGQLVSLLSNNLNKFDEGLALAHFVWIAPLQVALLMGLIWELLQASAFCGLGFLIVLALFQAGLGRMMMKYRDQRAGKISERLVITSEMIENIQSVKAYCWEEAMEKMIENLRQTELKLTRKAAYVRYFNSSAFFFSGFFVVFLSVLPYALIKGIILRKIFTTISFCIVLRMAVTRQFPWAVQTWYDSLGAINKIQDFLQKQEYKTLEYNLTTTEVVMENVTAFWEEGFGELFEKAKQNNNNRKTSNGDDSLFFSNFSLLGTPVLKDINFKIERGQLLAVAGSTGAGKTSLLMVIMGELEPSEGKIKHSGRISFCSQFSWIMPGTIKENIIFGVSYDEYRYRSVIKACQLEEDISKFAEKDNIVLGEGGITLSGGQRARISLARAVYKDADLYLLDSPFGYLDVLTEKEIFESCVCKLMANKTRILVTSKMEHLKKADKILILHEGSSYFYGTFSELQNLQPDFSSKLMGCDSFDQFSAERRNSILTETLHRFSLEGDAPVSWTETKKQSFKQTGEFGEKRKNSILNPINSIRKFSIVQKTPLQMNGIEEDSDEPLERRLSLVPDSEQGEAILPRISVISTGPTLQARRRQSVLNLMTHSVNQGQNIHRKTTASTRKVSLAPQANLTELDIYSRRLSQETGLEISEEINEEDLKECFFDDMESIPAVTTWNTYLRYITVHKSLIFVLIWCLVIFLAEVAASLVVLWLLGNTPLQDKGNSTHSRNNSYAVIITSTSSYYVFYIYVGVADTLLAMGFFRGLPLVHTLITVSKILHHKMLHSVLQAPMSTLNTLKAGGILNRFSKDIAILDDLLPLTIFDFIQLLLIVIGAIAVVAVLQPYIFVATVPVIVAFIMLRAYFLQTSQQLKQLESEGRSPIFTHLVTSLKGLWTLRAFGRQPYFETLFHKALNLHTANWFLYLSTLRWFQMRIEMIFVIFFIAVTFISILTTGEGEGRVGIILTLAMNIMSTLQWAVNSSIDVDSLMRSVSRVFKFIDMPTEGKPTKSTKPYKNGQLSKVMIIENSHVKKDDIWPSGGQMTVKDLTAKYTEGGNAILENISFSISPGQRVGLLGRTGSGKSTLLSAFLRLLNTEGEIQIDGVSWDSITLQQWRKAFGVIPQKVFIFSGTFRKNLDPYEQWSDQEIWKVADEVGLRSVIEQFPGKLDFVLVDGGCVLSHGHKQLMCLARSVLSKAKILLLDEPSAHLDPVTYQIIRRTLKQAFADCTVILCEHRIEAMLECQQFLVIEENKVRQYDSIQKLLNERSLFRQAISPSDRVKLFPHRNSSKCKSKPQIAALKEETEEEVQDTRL

IC50 [µM]	Structure (SMILES)
25.1	O=C(NCc1ccc(C(F)(F)F)cc1)c1n[nH]c(-c2cc(Cl)c(O)c(Cl)c2)n1 [Compound 87, 5-(3,5-dichloro-4-hydroxyphenyl)-N-(4-(trifluoromethyl)benzyl)-1H-1,2,4-triazole-3-carboxamide]
7.92	CN(Cc1ccc(Cl)c(Cl)c1)C(=O)c1n[nH]c(-c2cc(Cl)c(O)c(Cl)c2)n1 [Compound 95, 5-(3,5-Dichloro-4-hydroxyphenyl)-N-(3,4-dichlorobenzyl)-N-methyl-1H-1,2,4-triazole-3-carboxamide]
18	O=C(NCc1ccccc1C(F)(F)F)c1n[nH]c(-c2cc(Cl)c(O)c(Cl)c2)n1 [Compound 85, 5-(3,5-dichloro-4-hydroxyphenyl)-N-(2-(trifluoromethyl)benzyl)-1H-1,2,4-triazole-3-carboxamide]
7.05	O=C(c1n[nH]c(-c2cc(Cl)c(O)c(Cl)c2)n1)N1CCC(Cc2ccccc2)CC1 [Compound 82, (4-benzylpiperidin-1-yl)(5-(3,5-dichloro-4-hydroxyphenyl)-1H-1,2,4-triazol-3-yl)methanone]
6.9	O=C(c1n[nH]c(-c2cc(Cl)c(O)c(Cl)c2)n1)N1CCN(c2cccc(C(F)(F)F)c2)CC1 [Compound 83, (5-(3,5-dichloro-4-hydroxyphenyl)-1H-1,2,4-triazol-3-yl)(4-(3-(trifluoromethyl)phenyl)piperazin-1-yl)methanone]
1.51	O=C(NCc1ccc(Oc2ccccc2)cc1)c1nc(-c2cc(Br)c(O)c(Br)c2)n[nH]1 [Compound 81, 3-(3,5-dibromo-4-hydroxyphenyl)-N-(4-phenoxybenzyl)-1H-1,2,4-triazole-5-carboxamide]
24.1	CN(Cc1cccc(C(F)(F)F)c1)C(=O)c1n[nH]c(-c2cc(Cl)c(O)c(Cl)c2)n1 [Compound 90, 5-(3,5-dichloro-4-hydroxyphenyl)-N-methyl-N-(3-(trifluoromethyl)benzyl)-1H-1,2,4-triazole-3-carboxamide]
3.28	O=C(NCc1ccc(Oc2ccccc2)cc1)c1n[nH]c(-c2cc(Cl)c(O)c(Cl)c2)n1 [Compound 92, 5-(3,5-dichloro-4-hydroxyphenyl)-N-(4-phenoxybenzyl)-1H-1,2,4-triazole-3-carboxamide]
1.57	O=C(NCc1ccc(Cl)c(Cl)c1)c1n[nH]c(-c2cc(Cl)c(O)c(Cl)c2)n1 [Compound 91, 5-(3,5-dichloro-4-hydroxyphenyl)-N-(3,4-dichlorobenzyl)-1H-1,2,4-triazole-3-carboxamide]
5.25	O=C(NCc1cc(F)c(F)c(F)c1)c1n[nH]c(-c2cc(Cl)c(O)c(Cl)c2)n1 [Compound 89, 5-(3,5-dichloro-4-hydroxyphenyl)-N-(3,4,5-trifluorobenzyl)-1H-1,2,4-triazole-3-carboxamide]
7.53	CN(Cc1ccc(C(C)(C)C)cc1)C(=O)c1n[nH]c(-c2cc(Cl)c(O)c(Cl)c2)n1 [Compound 96, N-(4-tert-butylbenzyl)-5-(3,5-dichloro-4-hydroxyphenyl)-N-methyl-1H-1,2,4-triazole-3-carboxamide]
7.33	O=C(NC(c1ccccc1)c1ccccc1)c1n[nH]c(-c2cc(Cl)c(O)c(Cl)c2)n1 [Compound 88, N-benzhydryl-5-(3,5-dichloro-4-hydroxyphenyl)-1H-1,2,4-triazole-3-carboxamide]
3.23	O=C(NC(c1ccccc1)c1ccccc1)c1nc(-c2cc(Br)c(O)c(Br)c2)n[nH]1 [Compound 78, N-benzhydryl-3-(3,5-dibromo-4-hydroxyphenyl)-1H-1,2,4-triazole-5-carboxamide]
10.5	O=C(c1nc(-c2cc(Br)c(O)c(Br)c2)n[nH]1)N1CCC(Cc2ccccc2)CC1 [Compound 80, (4-Benzylpiperidin-1-yl)(3-(3,5-dibromo-4-hydroxyphenyl)-1H-1,2,4-triazol-5-yl)methanone]
9.11	O=C(NCc1ccc(OC(F)(F)F)cc1)c1n[nH]c(-c2cc(Cl)c(O)c(Cl)c2)n1 [Compound 94, 5-(3,5-dichloro-4-hydroxyphenyl)-N-(4-(trifluoromethoxy)benzyl)-1H-1,2,4-triazole-3-carboxamide]
6.8	O=C(NCc1cc(Cl)cc(Cl)c1)c1n[nH]c(-c2cc(Cl)c(O)c(Cl)c2)n1 [Compound 97, 5-(3,5-dichloro-4-hydroxyphenyl)-N-(3,5-dichlorobenzyl)-1H-1,2,4-triazole-3-carboxamide]
15.6	O=C(NCc1ccc(F)c(F)c1)c1n[nH]c(-c2cc(Cl)c(O)c(Cl)c2)n1 [Compound 84, 5-(3,5-dichloro-4-hydroxyphenyl)-N-(3,4-difluorobenzyl)-1H-1,2,4-triazole-3-carboxamide]
25	CN(Cc1ccc(Cl)cc1)C(=O)c1n[nH]c(-c2cc(Cl)c(O)c(Cl)c2)n1 [Compound 93, N-(4-chlorobenzyl)-5-(3,5-dichloro-4-hydroxyphenyl)-N-methyl-1H-1,2,4-triazole-3-carboxamide]
22.2	O=C(NCc1cccc(OC(F)(F)F)c1)c1n[nH]c(-c2cc(Cl)c(O)c(Cl)c2)n1 [Compound 86, 5-(3,5-dichloro-4-hydroxyphenyl)-N-(3-(trifluoromethoxy)benzyl)-1H-1,2,4-triazole-3-carboxamide]
6.93	O=C(c1nc(-c2cc(Br)c(O)c(Br)c2)n[nH]1)N1CCN(c2cccc(C(F)(F)F)c2)CC1 [Compound 79, (3-(3,5-dibromo-4-hydroxyphenyl)-1H-1,2,4-triazol-5-yl)(4-(3-(trifluoromethyl)phenyl)piperazin-1-yl)methanone]
